From PubChem BioAssay AID248 (DTP/NCI, 2004)
Several values for one entry are separate records, joined by “and”; a condition that tells them apart may be missing. Equal entries are not always repeated. Toxic doses and inconclusive results are not listed. Cut-off read from the data, not from the text of the source: active = T/C of 150% or more; inactive = T/C below 125%. Square brackets hold non-standard residues; d marks the D form. Peptide text beside a SMILES is read from it. * marks the point of attachment. ξ: configuration not given here. Cbz = O=C(OCc1ccccc1)*; ξI = CCC(C)C(N)C(=O)O

Test system: L1210 leukemia ip in BDF1 mice, survival T/C
Assay: NCI In Vivo Anticancer Drug Screen. Data for tumor model L1210 Leukemia (intraperitoneal) in B6D2F1 (BDF1) mice
Settings: endpoint: mean survival time, higher = longer survival
How it was run: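 Survival endpoint. Drug-treated group vs vehicle group, expressed as T divided by C. Tumor passaged by transplantation.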

[1] = dose: 100.0 mg/kg/injection, schedule: Q01DX001 (ip), vehicle: saline
[2] = dose: 200.0 mg/kg/injection, schedule: Q01DX001 (ip), vehicle: saline
[3] = dose: 400.0 mg/kg/injection, schedule: Q01DX001 (ip), vehicle: saline
[4] = dose: 100.0 mg/kg/injection, schedule: Q01DX009 (ip), vehicle: Klucel (hydroxypropylcellulose) (HPC)
[5] = dose: 100.0 mg/kg/injection, schedule: Q04DX003 (ip), vehicle: Klucel (hydroxypropylcellulose) (HPC)
[6] = dose: 200.0 mg/kg/injection, schedule: Q01DX009 (ip), vehicle: Klucel (hydroxypropylcellulose) (HPC)
[7] = dose: 200.0 mg/kg/injection, schedule: Q04DX003 (ip), vehicle: Klucel (hydroxypropylcellulose) (HPC)
[8] = dose: 400.0 mg/kg/injection, schedule: Q01DX009 (ip), vehicle: Klucel (hydroxypropylcellulose) (HPC)
[9] = dose: 400.0 mg/kg/injection, schedule: Q04DX003 (ip), vehicle: Klucel (hydroxypropylcellulose) (HPC)
[10] = dose: 100.0 mg/kg/injection, schedule: Q04DX003 (ip), vehicle: saline with Tween-80
[11] = dose: 400.0 mg/kg/injection, schedule: Q04DX003 (ip), vehicle: saline with Tween-80
[12] = dose: 100.0 mg/kg/injection, schedule: Q01DX001 (ip), vehicle: carboxymethylcellulose (CMC)
[13] = dose: 200.0 mg/kg/injection, schedule: Q01DX001 (ip), vehicle: carboxymethylcellulose (CMC)
[14] = dose: 400.0 mg/kg/injection, schedule: Q01DX001 (ip), vehicle: carboxymethylcellulose (CMC)

Measured: T/C

CN(C)c1ccc(C2NC(c3ccccc3)c3c(ccc4ccccc34)O2)cc1 (centres undefined)
inactive: [1] 92 % of control | dose: 100.0 mg/kg/injection, schedule: Q04DX003 (ip), vehicle: saline 90 % of control | [2] 89 % of control | [3] 89 % of control | dose: 400.0 mg/kg/injection, schedule: Q04DX003 (ip), vehicle: saline 90 % of control

Nc1ccc(C(=O)Oc2ccc([N+](=O)[O-])cc2)c(O)c1
inactive: [4] 95 % of control | [5] 100 % of control | [6] 97 % of control | [7] 88 % of control | [8] 87 % of control | [9] 96 % of control

O=NN1CC2CCC1CC2
inactive: dose: 2.5 mg/kg/injection, schedule: Q01DX009 (ip), vehicle: saline 109 % of control | dose: 5.0 mg/kg/injection, schedule: Q01DX009 (ip), vehicle: saline 109 % of control | dose: 10.0 mg/kg/injection, schedule: Q01DX009 (ip), vehicle: saline 102 % of control

CCC(C)C(NC(=O)CNC(=O)OCc1ccccc1)C(N)=O (stereo not drawn) (Cbz-Gly-[ξI]-NH2)
inactive: [10] 103 % of control | dose: 200.0 mg/kg/injection, schedule: Q04DX003 (ip), vehicle: saline with Tween-80 97 % of control | [11] 95 % of control

CCOC(=O)c1nnc(CC)[nH]c1=O
inactive: dose: 100.0 mg/kg/injection, schedule: Q01DX001 (ip), vehicle: Klucel (hydroxypropylcellulose) (HPC) 106 % of control | dose: 200.0 mg/kg/injection, schedule: Q01DX001 (ip), vehicle: Klucel (hydroxypropylcellulose) (HPC) 111 % of control | dose: 400.0 mg/kg/injection, schedule: Q01DX001 (ip), vehicle: Klucel (hydroxypropylcellulose) (HPC) 90 % of control

CC(C)(C)c1cc(C[P+](c2ccccc2)(c2ccccc2)c2ccccc2)cc(C(C)(C)C)c1O
inactive: dose: 1.56 mg/kg/injection, schedule: Q01DX009 (ip), vehicle: saline 106 % of control | dose: 1.56 mg/kg/injection, schedule: Q04DX003 (ip), vehicle: saline 91 % of control | dose: 3.12 mg/kg/injection, schedule: Q01DX009 (ip), vehicle: saline 105 % of control | dose: 3.12 mg/kg/injection, schedule: Q04DX003 (ip), vehicle: saline 96 % of control | dose: 6.25 mg/kg/injection, schedule: Q04DX003 (ip), vehicle: saline 91 % of control

O=C(Cn1ccccc1=O)c1ccccc1
inactive: [10] 101 % of control | [11] 100 % of control

N=C1SSC(=S)C1C(N)=O (centres undefined)
inactive: dose: 50.0 mg/kg/injection, schedule: Q01DX001 (ip), vehicle: carboxymethylcellulose (CMC) 94 % of control | [12] 96 % of control | [13] 100 % of control | [14] 100 % of control

Cc1ccc2c[c]1[Hg][CH2]COS2(=O)=O
inactive: dose: 3.12 mg/kg/injection, schedule: Q04DX002 (ip), vehicle: Klucel (hydroxypropylcellulose) (HPC) 93 % of control | dose: 6.25 mg/kg/injection, schedule: Q04DX002 (ip), vehicle: Klucel (hydroxypropylcellulose) (HPC) 101 % of control | dose: 12.5 mg/kg/injection, schedule: Q04DX002 (ip), vehicle: Klucel (hydroxypropylcellulose) (HPC) 102 % of control and 90 % of control

CCOC(=O)c1ccc2c3c(ccc(C(=O)OCC)c13)C=C2
inactive: [1] 88 % of control | [2] 96 % of control | [3] 100 % of control

COc1ccc2c(c1O)C13CCN(C)C(C2)C1CCC1(C3)OCCO1 (centres undefined)
inactive: [1] 95 % of control | dose: 100.0 mg/kg/injection, schedule: Q01DX009 (ip), vehicle: saline 100 % of control | [2] 104 % of control | dose: 200.0 mg/kg/injection, schedule: Q01DX009 (ip), vehicle: saline 103 % of control | [3] 98 % of control

Cc1ncc(C(=O)Nc2ccccc2)[nH]1
inactive: [4] 113 % of control | [5] 105 % of control | [6] 106 % of control | [7] 122 % of control

O=C(O)C1CC1(Br)Br (centres undefined)
inactive: dose: 100.0 mg/kg/injection, schedule: Q04DX003 (ip), vehicle: acetone 87 % of control

CCN(CC)CCOc1ccc(C(C)(C)c2ccc(OCCN(CC)CC)cc2)cc1
inactive: dose: 100.0 mg/kg/injection, schedule: Q04DX002 (ip), vehicle: saline 108 % of control | dose: 200.0 mg/kg/injection, schedule: Q04DX002 (ip), vehicle: saline 108 % of control

CC1(C)OC(CO)C2OC(C)(C)OC(CO)C2O1 (centres undefined)
inactive: [12] 98 % of control | [13] 98 % of control | [14] 95 % of control

COc1ccc(Cl)cc1NC(=O)c1cccc(Cl)c1
inactive: [4] 110 % of control | [6] 110 % of control | [8] 104 % of control

C=CCc1ccc(OCCOCCNC2C(C)CCCC2(C)C)c(OC)c1 (centres undefined)
inactive: dose: 5.0 mg/kg/injection, schedule: Q01DX009 (ip), vehicle: Klucel (hydroxypropylcellulose) (HPC) 101 % of control | dose: 5.0 mg/kg/injection, schedule: Q04DX003 (ip), vehicle: Klucel (hydroxypropylcellulose) (HPC) 96 % of control | dose: 10.0 mg/kg/injection, schedule: Q01DX009 (ip), vehicle: Klucel (hydroxypropylcellulose) (HPC) 100 % of control | dose: 10.0 mg/kg/injection, schedule: Q04DX003 (ip), vehicle: Klucel (hydroxypropylcellulose) (HPC) 90 % of control | dose: 20.0 mg/kg/injection, schedule: Q01DX009 (ip), vehicle: Klucel (hydroxypropylcellulose) (HPC) 97 % of control | dose: 20.0 mg/kg/injection, schedule: Q04DX003 (ip), vehicle: Klucel (hydroxypropylcellulose) (HPC) 96 % of control

O=C(NC/C(Br)=C/Br)c1ccccc1
inactive: [5] 96 % of control | [7] 100 % of control | [9] 96 % of control

COc1ccc(/C(=N\O)C(c2ccc(OC)cc2)C(Cl)(Cl)Cl)cc1 (centres undefined)
inactive: [4] 92 % of control | [6] 95 % of control | [8] 97 % of control

COC1=CC23CCNC(Cc4ccc(OC)c(O)c42)C3=CC1 (centres undefined)
inactive: dose: 10.0 mg/kg/injection, schedule: Q01DX001 (ip), vehicle: saline 101 % of control

O=C(O)CNCCN1CC(=O)N(Cc2ccccc2)C1=S
inactive: [12] 100 % of control | dose: 100.0 mg/kg/injection, schedule: Q01DX009 (ip), vehicle: carboxymethylcellulose (CMC) 104 % of control | dose: 100.0 mg/kg/injection, schedule: Q04DX002 (ip), vehicle: carboxymethylcellulose (CMC) 94 % of control and 103 % of control | dose: 100.0 mg/kg/injection, schedule: Q04DX003 (ip), vehicle: carboxymethylcellulose (CMC) 100 % of control | [13] 103 % of control | dose: 200.0 mg/kg/injection, schedule: Q01DX009 (ip), vehicle: carboxymethylcellulose (CMC) 93 % of control and 101 % of control | dose: 200.0 mg/kg/injection, schedule: Q04DX002 (ip), vehicle: carboxymethylcellulose (CMC) 103 % of control and 88 % of control | dose: 200.0 mg/kg/injection, schedule: Q04DX003 (ip), vehicle: carboxymethylcellulose (CMC) 98 % of control | [14] 101 % of control | dose: 400.0 mg/kg/injection, schedule: Q01DX009 (ip), vehicle: carboxymethylcellulose (CMC) 96 % of control | dose: 400.0 mg/kg/injection, schedule: Q04DX002 (ip), vehicle: carboxymethylcellulose (CMC) 98 % of control and 103 % of control

CCOC(=O)C(C)S(=O)(=O)/C(=C\N1CCCCC1)CC (centres undefined)
inactive: dose: 100.0 mg/kg/injection, schedule: Q04DX002 (ip), vehicle: Klucel (hydroxypropylcellulose) (HPC) 109 % of control | dose: 100.0 mg/kg/injection, schedule: Q04DX003 (ip), vehicle: other 104 % of control | dose: 200.0 mg/kg/injection, schedule: Q04DX002 (ip), vehicle: Klucel (hydroxypropylcellulose) (HPC) 98 % of control | dose: 200.0 mg/kg/injection, schedule: Q04DX003 (ip), vehicle: other 96 % of control | dose: 400.0 mg/kg/injection, schedule: Q04DX002 (ip), vehicle: Klucel (hydroxypropylcellulose) (HPC) 112 % of control | dose: 400.0 mg/kg/injection, schedule: Q04DX003 (ip), vehicle: other 102 % of control

CN1CCN(CCNC(c2ccccc2)C(O)c2ccccc2)CC1 (centres undefined)
inactive: [5] 97 % of control

O=c1oc(-c2ccc(Cl)cc2)nc2cc(Cl)ccc12
inactive: dose: 25.0 mg/kg/injection, schedule: Q01DX009 (ip), vehicle: saline with Tween-80 93 % of control | dose: 50.0 mg/kg/injection, schedule: Q01DX009 (ip), vehicle: saline with Tween-80 97 % of control | dose: 100.0 mg/kg/injection, schedule: Q01DX009 (ip), vehicle: saline with Tween-80 93 % of control
